The values below come from patent US11046714B2, “2,2-difluorodioxolo A2A receptor antagonists” (Merck Sharp & Dohme Corp., priority 2013, dated 2021).

For this assay, the target named is human A2A receptor (Homo sapiens (Human), UniProt P29274). As to the kind of experiment: competition binding assay using Scintillation Proximity technology. The settings on record: membranes from CHO-K1 cells expressing the human A2a receptor; 2.0 nM tritiated compound; Cheng-Prusoff. Summed up:
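Membranes (1.0 μg) from CHO-K1 cells expressing human A2A were treated with adenosine deaminase, then incubated 1 h at room temperature with compound (3000–0.15 nM) and 2.0 nM tritiated SCH-type ligand on WGA SPA beads in PBS plus 10 mM MgCl2. Nonspecific binding was defined with 1 μM CGS 15943. Ki was derived from EC50 via Cheng-Prusoff.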

Chain of human A2A receptor (P29274 whole entry): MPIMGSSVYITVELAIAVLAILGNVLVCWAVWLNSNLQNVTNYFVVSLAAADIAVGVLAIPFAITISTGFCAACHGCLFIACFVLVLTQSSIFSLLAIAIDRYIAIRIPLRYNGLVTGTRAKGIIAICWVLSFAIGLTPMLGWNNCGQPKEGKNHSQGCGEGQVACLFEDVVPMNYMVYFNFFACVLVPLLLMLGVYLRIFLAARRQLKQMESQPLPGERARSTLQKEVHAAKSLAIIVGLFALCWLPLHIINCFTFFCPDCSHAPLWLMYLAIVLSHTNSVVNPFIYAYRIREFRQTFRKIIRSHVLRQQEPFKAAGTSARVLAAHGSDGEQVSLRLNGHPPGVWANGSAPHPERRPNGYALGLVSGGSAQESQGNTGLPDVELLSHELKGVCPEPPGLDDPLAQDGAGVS

In general, Ki refers to the equilibrium dissociation constant of an inhibitor or competing ligand from its target. `Nc1nc2c3c(ccc2c2nc(CN4CC(F)(F)C4)nn12)OC(F)(F)O3` [Example 109, 8-((3,3-difluoroazetidin-1-yl)methyl)-2,2-difluoro-[1,3]dioxolo[4,5-h][1,2,4]triazolo[1,5-c]quinazolin-5-amine] gave a Ki of 5.9 nM.

For `C[C@@H]1CN(CCc2nc3c4ccc5c(c4nc(N)n3n2)OC(F)(F)O5)C[C@H](C)O1` [Example 44, 8-{2-[(2R,6S)-2,6-dimethylmorpholin-4-yl]ethyl}-2,2-difluoro[1,3]dioxolo[4,5-h][1,2,4]triazolo[1,5-c]quinazolin-5-amine], the inhibition constant Ki turned out to be 45 nM.

Turning to `C[C@@H](Cc1nc2c3ccc4c(c3nc(N)n2n1)OC(F)(F)O4)N1CC(C)(F)C1` [Example 88, 2,2-difluoro-8-[(2S)-2-(3-fluoro-3-methylazetidin-1-yl)propyl][1,3] dioxolo[4,5-h][1,2,4]triazolo [1,5-c]quinazolin-5-amine], the Ki was determined as 4.8 nM.

In the case of `Nc1nc2c3c(ccc2c2nc(CNCc4ccc(C(F)(F)F)cc4)nn12)OC(F)(F)O3` [Example 124, 2,2-difluoro-8-({[4-(trifluoromethyl)benzyl]amino}methyl)[1,3]dioxolo [4,5-h][1,2,4]triazolo[1,5-c]quinazolin-5-amine], the Ki stood at 1.6 nM.

For `CN(C)Cc1nc2c3ccc4c(c3nc(N)n2n1)OC(F)(F)O4` [Example 126, 8-[(dimethylamino)methyl]-2,2-difluoro[1,3]dioxolo[4,5-h][1,2,4] triazolo[1,5-c]quinazolin-5-amine], the Ki was 29 nM. Against the preceding molecule, the Ki is about 18-fold higher.

Consider `Nc1nc2c3c(ccc2c2nc(C4CCCN(CCC(F)(F)F)C4)nn12)OC(F)(F)O3` (single isomer, unassigned) [Example 140, (R or S)-2,2-difluoro-8-(1-(3,3,3-trifluoropropyl)piperidin-3-yl)-[1,3]dioxolo[4,5-h][1,2,4]triazolo[1,5-c]quinazolin-5-amine], for which the Ki turned out to be 0.8 nM.

`CC(c1nc2c3ccc4c(c3nc(N)n2n1)OC(F)(F)O4)N1CC(F)(F)C1` (single isomer, unassigned) [Example 131, (R or S)-8-[1-(3,3-difluoroazetidin-1-yl)ethyl]-2,2-difluoro[1,3]dioxolo [4,5-h][1,2,4]triazolo[1,5-c]quinazolin-5-amine] returned a Ki of 130 nM.

The molecule `C[C@@H]1C[C@H](F)CN1CCc1nc2c3ccc4c(c3nc(N)n2n1)OC(F)(F)O4` [Example 22, 2,2-difluoro-8-{2-[(2R,4S)-4-fluoro-2-methylpyrrolidin-1-yl]ethyl}[1,3]dioxolo[4,5-h][1,2,4]triazolo[1,5-c]quinazolin-5-amine] yielded a Ki of 1.5 nM.

`CC1(F)CN(Cc2nc3c4ccc5c(c4nc(N)n3n2)OC(F)(F)O5)C1` [Example 111, 2,2-difluoro-8-[(3-fluoro-3-methylazetidin-1-yl)methyl][1,3] dioxolo[4,5-h][1,2,4]triazolo[1,5-c]quinazolin-5-amine] showed a Ki of 1.4 nM.

For `Nc1nc2c3c(ccc2c2nc([C@@H]4CCCN(CC(F)F)C4)nn12)OC(F)(F)O3` [Example 139, (R)-8-(1-(2,2-difluoroethyl)piperidin-3-yl)-2,2-difluoro-[1,3]dioxolo[4,5-h][1,2,4]triazolo[1,5-c]quinazolin-5-amine], the Ki was 1.5 nM.

Molecule `Nc1nc2c3c(ccc2c2nc(CCN4CC(F)(F)C4)nn12)OC(F)(F)O3` [Example 19, 8-[2-(3,3-difluoroazetidin-1-yl)ethyl]-2,2-difluoro[1,3] dioxolo[4,5-h][1,2,4]triazolo [1,5-c]quinazolin-5-amine] registered a Ki of 3 nM.

On to `Nc1nc2c3c(ccc2c2nc(CCN4Cc5ccc(F)cc5C4)nn12)OC(F)(F)O3` [Example 8, 2,2-difluoro-8-[2-(5-fluoro-1,3-dihydro-2H-isoindol-2-yl)ethyl][1,3]dioxolo[4,5-h][1,2,4]triazolo[1,5-c]quinazolin-5-amine], for which the affinity, expressed as Ki, was 2.1 nM.

The molecule `Nc1nc2c3c(ccc2c2nc(CCN4CCCC(F)(C(F)(F)F)C4)nn12)OC(F)(F)O3` (single isomer, unassigned) [Example 72, (R or S)-2,2-difluoro-8-(2-(3-fluoro-3-(trifluoromethyl)piperidin-1-yl)ethyl)-[1,3]dioxolo[4,5-h][1,2,4]triazolo[1,5-c]quinazolin-5-amine] registered a Ki of 0.9 nM.

`Nc1nc2c3c(ccc2c2nc(CCN4CC(F)(C5CC5)C4)nn12)OC(F)(F)O3` [Example 18, 8-[2-(3-cyclopropyl-3-fluoroazetidin-1-yl)ethyl]-2,2-difluoro[1,3]dioxolo[4,5-h][1,2,4]triazolo[1,5-c]quinazolin-5-amine] gave a Ki of 1.6 nM. This Ki lies about 1.8-fold higher than the previous one.

With `Nc1nc2c3c(ccc2c2nc(CCN4CCN(CC5CC5)C(=O)C4)nn12)OC(F)(F)O3` [Example 48, 4-[2-(5-amino-2,2-difluoro[1,3]dioxolo[4,5-h][1,2,4]triazolo [1,5-c]quinazolin-8-yl)ethyl]-1-(cyclopropylmethyl)piperazin-2-one], affinity was put at a Ki of 0.8 nM.

`Nc1nc2c3c(ccc2c2nc(CCN4CCC5(CCNCC5)CC4)nn12)OC(F)(F)O3` [Example 54, 8-[2-(3,9-diazaspiro[5.5]undec-3-yl)ethyl]-2,2-difluoro[1,3] dioxolo[4,5-h][1,2,4]triazolo [1,5-c]quinazolin-5-amine] showed a Ki of 320 nM.

In the case of `COCCN1CCC(Cc2nc3c4ccc5c(c4nc(N)n3n2)OC(F)(F)O5)C1` (single isomer, unassigned) [Example 157, (R or S)-2,2-difluoro-8-{[1-(2-methoxyethyl)pyrrolidin-3-yl]methyl}[1,3]dioxolo [4,5-h][1,2,4]triazolo[1,5-c]quinazolin-5-amine], the Ki is 75 nM.

The molecule `CC(F)(F)CN1CC(Cc2nc3c4ccc5c(c4nc(N)n3n2)OC(F)(F)O5)C1` [Example 152, 8-{[1-(2,2-difluoropropyl)azetidin-3-yl]methyl}-2,2-difluoro[1,3] dioxolo[4,5-h][1,2,4]triazolo[1,5-c]quinazolin-5-amine] displayed a Ki of 5.5 nM.

`C[C@@H](Cc1nc2c3ccc4c(c3nc(N)n2n1)OC(F)(F)O4)N1CCCC(C)(F)C1` (single isomer, unassigned) [Example 90, 2,2-difluoro-8-{(2S)-2-[(3R or 3S)-3-fluoro-3-methylpiperidin-1-yl]propyl}[1,3] dioxolo[4,5-h] [1,2,4]triazolo[1,5-c]quinazolin-5-amine] registered a Ki of 12 nM.

For `Nc1nc2c3c(ccc2c2nc(C4CCCN(CCC(F)(F)F)C4)nn12)OC(F)(F)O3` (single isomer, unassigned) [Example 141, (R or S)-2,2-difluoro-8-(1-(3,3,3-trifluoropropyl)piperidin-3-yl)-[1,3]dioxolo[4,5-h][1,2,4]triazolo[1,5-c]quinazolin-5-amine], the affinity corresponds to a Ki of 55 nM.

`CC(c1nc2c3ccc4c(c3nc(N)n2n1)OC(F)(F)O4)N1CCCC(F)(F)C1` (single isomer, unassigned) [Example 135, 8-[(1S or 1R)-1-(3,3-difluoropiperidin-1-yl)ethyl]-2,2-difluoro[1,3]dioxolo [4,5-h][1,2,4]triazolo[1,5-c] quinazolin-5-amine] returned an inhibition constant (Ki) of 89 nM.

`Nc1nc2c3c(ccc2c2nc(CCCN4Cc5cccnc5C4)nn12)OC(F)(F)O3` [Example 137, 8-(3-(5H-pyrrolo[3,4-b]pyridin-6(7H)-yl)propyl)-2,2-difluoro-[1,3]dioxolo[4,5-h][1,2,4]triazolo[1,5-c]quinazolin-5-amine] showed a Ki of 1.9 nM.

The molecule `Nc1nc2c3c(ccc2c2nc(C[C@H](N)C4CC4)nn12)OC(F)(F)O3` [Example 158, 8-[(2S)-2-amino-2-cycloproplethyl]-2,2-difluoro[1,3]dioxolo[4,5-h][1,2,4]triazolo[1,5-c]quinazolin-5-amine] displayed an inhibitory constant (Ki) of 19 nM.

In turn, `Nc1nc2c3c(ccc2c2nc(CC4CCN(CCC(F)(F)F)C4)nn12)OC(F)(F)O3` (single isomer, unassigned) [Example 155, (R or S)-2,2-difluoro-8-{[1-(3,3,3-trifluoropropyl)pyrrolidin-3-yl]methyl}[1,3]dioxolo[4,5-h][1,2,4]triazolo[1,5-c]quinazolin-5-amine] gave a Ki of 7.2 nM.

The molecule `Nc1nc2c3c(ccc2c2nc(CCN4CC(F)(C(F)(F)F)C4)nn12)OC(F)(F)O3` [Example 21, 2,2-difluoro-8-{2-[3-fluoro-3-(trifluoromethyl)azetidin-1-yl]ethyl}[1,3]dioxolo[4,5-h][1,2,4]triazolo[1,5-c]quinazolin-5-amine] displayed a Ki of 3.4 nM.

In turn, `Nc1nc2c3c(ccc2c2nc(CCNC4CC5(CNC5)C4)nn12)OC(F)(F)O3` [Example 57, 8-[2-(2-azaspiro[3.3]hept-6-ylamino)ethyl]-2,2-difluoro [1,3]dioxolo[4,5-h][1,2,4] triazolo[1,5-c]quinazolin-5-amine] gave an inhibitory constant (Ki) of 90 nM.

The molecule `CCc1nnc2n1CCN(Cc1nc3c4ccc5c(c4nc(N)n3n1)OC(F)(F)O5)C2` [Example 122, 8-[(3-ethyl-5,6-dihydro[1,2,4]triazolo [4,3-a]pyrazin-7(8H)-yl)methyl]-2,2-difluoro[1,3]dioxolo[4,5-h][1,2,4] triazolo[1,5-c]quinazolin-5-amine] displayed a Ki of 110 nM.

Regarding `CN1CCN(CCc2nc3c4ccc5c(c4nc(N)n3n2)OC(F)(F)O5)CC1=O` [Example 47, 4-[2-(5-amino-2,2-difluoro[1,3]dioxolo[4,5-h][1,2,4]triazolo [1,5-c]quinazolin-8-yl)ethyl]-1-methylpiperazin-2-one], the inhibition constant (Ki) turned out to be 1.7 nM.

`Nc1nc2c3c(ccc2c2nc(CNC4(C(F)(F)F)CCC4)nn12)OC(F)(F)O3` [Example 125, 2,2-difluoro-8-({[1-(trifluoromethyl)cyclobutyl]amino}methyl)[1,3]dioxolo [4,5-h][1,2,4]triazolo[1,5-c]quinazolin-5-amine] displayed a Ki of 1.1 nM. Against the preceding molecule, the Ki is about 1.5-fold lower.
